Assay: xn = mol fraction of the nth substance listed
Conditions: Liquid, Vibrating tube method

COC(=O)c1ccccc1 [methyl benzoate] + CCCCCCO
mass density [kg/m3]
Conditions	x1 = 0.1004	x1 = 0.2007	x1 = 0.3007	x1 = 0.4013	x1 = 0.5005	x1 = 0.6009	x1 = 0.7	x1 = 0.8008	x1 = 0.9009
318.15 K, 30000 kPa	846.9	872.9	899.1	925.4	951.5	977.9	1003.9	1030.5	1056.8
318.15 K, 35000 kPa	849.9	875.9	902.1	928.4	954.5	980.9	1006.9	1033.5	1059.8
318.15 K, 40000 kPa	852.8	878.8	905.1	931.4	957.4	983.8	1009.8	1036.4	1062.7
318.15 K, 45000 kPa	855.7	881.7	907.9	934.3	960.3	986.7	1012.7	1039.3	1065.6
318.15 K, 50000 kPa	858.4	884.5	910.7	937.1	963.1	989.5	1015.5	1042.1	1068.4
318.15 K, 55000 kPa	861.1	887.2	913.4	939.8	965.8	992.2	1018.2	1044.6	1071.1
318.15 K, 60000 kPa	863.6	889.6	915.9	942.3	968.3	994.9	1020.7	1047.2	1073.6
328.15 K, 100 kPa	818.7	844.4	870.4	896.7	922.5	948.8	974.9	1001.4	1027.8
328.15 K, 1000 kPa	819.4	845.1	871.1	897.4	923.2	949.5	975.6	1002.1	1028.5
328.15 K, 5000 kPa	822.6	848.3	874.3	900.5	926	952.6	978.6	1005.1	1031.5
328.15 K, 10000 kPa	826.4	852.1	878.1	904.3	930.1	956.3	982.2	1008.7	1035.1
328.15 K, 15000 kPa	830	855.7	881.7	907.8	933.7	959.9	985.8	1012.3	1038.6
328.15 K, 20000 kPa	833.5	859.2	885.2	911.3	937.2	963.3	989.2	1015.7	1042
328.15 K, 25000 kPa	836.9	862.6	888.6	914.6	940.5	966.6	992.5	1019	1045.3
328.15 K, 30000 kPa	840.1	865.8	891.8	917.9	943.7	969.9	995.7	1022.2	1048.5
328.15 K, 35000 kPa	843.3	869	895	921.1	946.9	973	998.9	1025.3	1051.6
328.15 K, 40000 kPa	846.3	872	898	924.1	950	976	1001.9	1028.3	1054.6
328.15 K, 45000 kPa	849.2	874.9	901	927.1	952.9	979	1004.9	1031.3	1057.6
328.15 K, 50000 kPa	852.1	877.8	903.9	930	955.8	981.9	1007.8	1034.2	1060.5
328.15 K, 55000 kPa	854.9	880.6	906.7	932.8	958.7	984.8	1010.7	1037.1	1063.3
328.15 K, 60000 kPa	857.4	883.2	908.8	935.6	960.6	987.4	1013.3	1039.6	1066.1
338.15 K, 100 kPa	810.7	836.2	862	888	913.7	939.7	965.6	992	1018.4
338.15 K, 1000 kPa	811.4	837	862.7	888.7	914.4	940.4	966.3	992.7	1019.1
338.15 K, 5000 kPa	814.9	840.4	866.1	892	917.7	943.7	969.5	996	1022.3
338.15 K, 10000 kPa	818.9	844.3	870.1	896	921.6	947.6	973.4	999.7	1026
338.15 K, 15000 kPa	822.7	848.2	873.8	899.7	925.4	951.4	977.2	1003.4	1029.7
338.15 K, 20000 kPa	826.4	851.8	877.5	903.4	929.1	955	980.7	1007	1033.3
338.15 K, 25000 kPa	829.9	855.3	881	906.9	932.5	958.5	984.2	1010.5	1036.7
338.15 K, 30000 kPa	833.3	858.7	884.4	910.3	935.9	961.8	987.5	1013.8	1040
338.15 K, 35000 kPa	836.5	862	887.7	913.6	939.2	965.1	990.8	1017.1	1043.3
338.15 K, 40000 kPa	839.7	865.1	890.9	916.8	942.4	968.3	994	1020.2	1046.4
338.15 K, 45000 kPa	842.7	868.2	894	919.9	945.5	971.4	997.1	1023.3	1049.5
338.15 K, 50000 kPa	845.7	871.2	897	922.9	948.5	974.4	1000.1	1026.4	1052.5
338.15 K, 55000 kPa	848.6	874.1	899.9	925.8	951.4	977.4	1003.1	1029.3	1055.5
338.15 K, 60000 kPa	851.4	876.8	902.8	928.7	954.3	980.1	1005.8	1032	1058.2
348.15 K, 100 kPa	802.6	827.8	853.4	879.1	904.6	930.4	956.1	982.5	1008.8
348.15 K, 1000 kPa	803.3	828.6	854.2	879.9	905.4	931.3	956.9	983.2	1009.5
348.15 K, 5000 kPa	807	832.2	857.7	883.4	908.8	934.7	960.3	986.6	1012.9
348.15 K, 10000 kPa	811.2	836.4	861.9	887.6	913	938.8	964.4	990.7	1016.9
348.15 K, 15000 kPa	815.2	840.4	865.9	891.4	917	942.8	968.4	994.6	1020.7
348.15 K, 20000 kPa	819	844.2	869.7	895.4	920.8	946.6	972.1	998.3	1024.4
348.15 K, 25000 kPa	822.7	847.9	873.4	899.1	924.5	950.2	975.8	1001.9	1028
348.15 K, 30000 kPa	826.2	851.4	877	902.6	928	953.8	979.3	1005.4	1031.5
348.15 K, 35000 kPa	829.6	854.8	880.4	906	931.4	957.2	982.7	1008.9	1034.9
348.15 K, 40000 kPa	832.9	858.1	883.7	909.3	934.7	960.5	986	1012.2	1038.2
348.15 K, 45000 kPa	836.1	861.3	886.9	912.5	938	963.7	989.3	1015.4	1041.4
348.15 K, 50000 kPa	839.1	864.4	890	915.7	941.1	966.9	992.4	1018.5	1044.5
348.15 K, 55000 kPa	842.1	867.4	893	918.7	944.2	969.9	995.5	1021.6	1047.6
348.15 K, 60000 kPa	844.9	870.2	895.8	921.5	947	972.8	998.2	1024.6	1050.4
358.15 K, 100 kPa	794.1	819.1	844.4	869.9	895.3	921	946.6	972.8	999
358.15 K, 1000 kPa	795	820	845.3	870.8	896.1	921.7	947.4	973.6	999.8
358.15 K, 5000 kPa	798.7	823.7	849	874.5	899.8	925.5	951	977.2	1003.3
358.15 K, 10000 kPa	803.1	828.2	853.5	878.9	904.2	929.9	955.3	981.4	1007.5
358.15 K, 15000 kPa	807.4	832.4	857.7	883.1	908.4	934	959.5	985.5	1011.6
358.15 K, 20000 kPa	811.4	836.4	861.7	887.1	912.3	938	963.4	989.5	1015.5
358.15 K, 25000 kPa	815.3	840.3	865.6	891	916.2	941.8	967.3	993.3	1019.3
358.15 K, 30000 kPa	818.9	844	869.3	894.7	919.9	945.5	970.9	996.9	1022.9
358.15 K, 35000 kPa	822.4	847.6	872.8	898.3	923.5	949.1	974.5	1000.5	1026.5
358.15 K, 40000 kPa	825.9	851	876.3	901.7	926.9	952.6	978	1003.9	1029.9
358.15 K, 45000 kPa	829.2	854.3	879.6	905.1	930.3	956	981.3	1007.3	1033.2
358.15 K, 50000 kPa	832.4	857.5	882.9	908.3	933.6	959.3	984.6	1010.6	1036.5
358.15 K, 55000 kPa	835.5	860.7	886	911.5	936.7	962.4	987.8	1013.7	1039.7
358.15 K, 60000 kPa	838.5	863.5	889.1	914.4	939.8	965.3	990.7	1016.9	1042.6
